Data on twelve compounds can be found in PubChem BioAssay (NCI).

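Dose response: 5 concentrations. Exposure: 48 h. Format: 96-well plates. Endpoint: linear interpolation; highest concentration if not reached. TGI marks complete inhibition of growth.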

What all share (assay): growth of human tumour cells (NCI), 48 h
Assay [1] concerns A549 NSCLC.
Assay [2] concerns BT-549 breast.
For assay [3], the system named is CAKI-1 renal.
Assay [4] deals with HL-60(TB) leukemia.
The subject of assay [5] is HOP-92 NSCLC.
In assay [6] the test system is IGROV1 ovarian.
Assay [7] relates to K-562 leukemia.
Assay [8] deals with MDA-MB-435.
The test system of assay [9] is MOLT-4 leukemia.
In assay [10] the test system is NCI-H226 lung.
In assay [11] the test system is OVCAR-3 ovarian.
In assay [12] the test system is OVCAR-4 ovarian.
In assay [13] the test system is SF-268 CNS.
Assay [14] relates to SF-295 CNS.
For assay [15], the system named is SK-OV-3 ovarian.
For assay [16], the system named is SNB-75 CNS.
Assay [17] concerns TK-10 renal.
Assay [18] relates to U251 CNS.
Assay [19] has as its system UACC-257 melanoma.
For assay [20], the system named is HCC-2998 colon.

As for `c1ccc(N=C(Nc2ccccc2)N2CCCCC2)cc1`, the TGI in assay [1], in [2], in assay [3], in assay [4], in [5] and in assay [6] was greater than 100 µM throughout. In addition, the TGI in assay [7], in assay [8], in assay [9], in assay [10], in [11] and in [12] was greater than 100 µM throughout. Besides, the TGI in [13], in assay [14], in [15], in assay [16], in [17] and in assay [18] was greater than 100 µM throughout. Further, in assay [19], the TGI stood at 68.9 µM.
In the case of `CC1(C)O[C@@H]2[C@@H](COC(=O)c3ccccc3)C[C@@H](C#N)[C@@H]2O1`, the TGI in [1], in [2], in [20], in [4], in assay [5] and in [6] was greater than 100 µM throughout. The TGI in assay [7], in assay [8], in [9], in [10], in assay [11] and in [12] was greater than 100 µM each time. In addition, the TGI in assay [13], in assay [14], in [15], in assay [16], in [17] and in [18] was greater than 100 µM throughout.
For the compound `CC(C)(C)c1cc(C(C)(C)C)c(SS(=O)(=O)O)c(O)c1O`, the TGI in assay [1], in assay [2], in assay [3], in assay [4], in [5] and in assay [6] was greater than 100 µM each time. Also, the TGI in assay [7] is greater than 100 µM; in assay [8], greater than 100 µM; in [9], 0.219 µM; in assay [10] it was greater than 100 µM; in assay [11], greater than 100 µM; in assay [12] it was greater than 100 µM. In addition, the TGI in [13] is greater than 100 µM; in [14], greater than 100 µM; in [15], greater than 100 µM; in assay [16], 99.1 µM; in assay [17] it was greater than 100 µM; in assay [18] it was greater than 100 µM. In assay [19], this compound had a TGI greater than 100 µM.
Consider `CN(C)c1ccc(/C=c2/c3ccccc3n3nc4ccccc4c23)cc1`, for which the TGI in assay [1] is greater than 100 µM; in [2], 71.5 µM; in [3] it was greater than 100 µM; in assay [4], greater than 100 µM; in [5], 90.7 µM; in assay [6] it was greater than 100 µM. Besides, the TGI in assay [7] was greater than 100 µM; in [8] it was greater than 100 µM; in [9], greater than 100 µM; in [11] it was greater than 100 µM; in assay [13], greater than 100 µM; in assay [14], 70.6 µM. The TGI is greater than 100 µM in [15]; 27.7 µM in [16]; greater than 100 µM in [17]; greater than 100 µM in assay [18]; greater than 100 µM in [19].
As for `COc1cc(CNc2ccc3nc4n(c(=O)c3c2)CCCCC4)cc(OC)c1OC`, the TGI was greater than 100 µM in [1]; 71.6 µM in assay [2]; greater than 100 µM in assay [3]; greater than 100 µM in assay [4]; greater than 100 µM in assay [5]; greater than 100 µM in assay [6]. The TGI in assay [7], in assay [8], in [9], in assay [10], in assay [11] and in assay [12] was greater than 100 µM throughout. Besides, the TGI in [13], in assay [14], in assay [15], in [16], in assay [17] and in assay [18] was greater than 100 µM throughout. This compound also gave a TGI in assay [19] of 75.8 µM.
Turning to `Cc1ccc(NN=NCCCCN)cc1`, the TGI in [1], in assay [2], in assay [3], in assay [20], in assay [4] and in assay [5] was greater than 100 µM in each case. Also, the TGI in [6], in [8], in [9], in assay [10], in assay [12] and in assay [13] was greater than 100 µM each time. The TGI in assay [14], in assay [15], in assay [16], in assay [17] and in assay [19] was greater than 100 µM throughout.
With `COc1ccc(C(=O)Cn2c(C(=O)/C=C/c3ccco3)nc3ccccc32)cc1`, the TGI was greater than 100 µM in assay [1]; greater than 100 µM in assay [2]; 37.1 µM in assay [20]; 71.7 µM in [4]; greater than 100 µM in [5]; greater than 100 µM in assay [6]. The TGI in assay [7] is greater than 100 µM; in [8], greater than 100 µM; in assay [9], greater than 100 µM; in assay [10] it was greater than 100 µM; in assay [11], 72.3 µM; in [12] it was greater than 100 µM. For the same compound, the TGI in assay [13] is 91.4 µM; in assay [15], 97.4 µM; in [16] it was greater than 100 µM; in assay [17] it was greater than 100 µM; in [18] it was greater than 100 µM; in assay [19], greater than 100 µM.
Consider `CCCCCCCCCc1cc(-c2ccc(C=O)s2)sc1-c1ccc(C=O)s1`, for which the TGI in [1] was greater than 100 µM; in [2], greater than 93.6 µM; in assay [20], greater than 78.7 µM; in [4], 51.1 µM; in assay [5] it was 75.8 µM; in assay [6], 56.3 µM. Further, the TGI was greater than 38 µM in assay [7]; greater than 100 µM in assay [8]; 10.5 µM in [9]; 9.94 µM in assay [10]; 38.2 µM in [11]; greater than 80.4 µM in [12]. Besides, the TGI is greater than 100 µM in assay [13]; greater than 100 µM in assay [14]; 67.2 µM in assay [15]; greater than 91.1 µM in [16]; 34.7 µM in assay [17]; 29 µM in assay [18]. The same compound came in with a TGI in assay [19] of 30.8 µM.
On to `Cc1nc2sc3ccccc3n2c(=O)c1N=Nc1ccc(Br)cc1`, for which the TGI in assay [1], in assay [2], in assay [3], in assay [4], in [5] and in assay [6] was greater than 100 µM in each case. Further, the TGI in assay [7], in assay [8], in assay [9], in [10], in [11] and in [12] was greater than 100 µM each time. In addition, the TGI in [13], in assay [14], in [15], in assay [16], in assay [17] and in assay [18] was greater than 100 µM each time. The compound further had a TGI in [19] greater than 100 µM.
Consider `Cc1c(C)c2c(c(N)c1C#N)C(=O)N(Nc1ccccc1)C2=O`, for which the TGI in assay [1], in assay [2], in assay [3], in assay [20], in assay [4] and in assay [5] was greater than 100 µM in each case. Besides, the TGI in assay [6], in [7], in [8], in assay [9], in assay [10] and in assay [11] was greater than 100 µM in each case. Besides, the TGI in [12], in assay [13], in [14], in assay [16], in assay [17] and in [18] was greater than 100 µM in each case. The TGI in assay [19] is greater than 100 µM.
In the case of `CCN1CCN(c2ccc(Nc3ccnc4ccc5c(nnn5C)c34)cc2)CC1`, the TGI worked out at 22.3 µM in assay [1]; 36.3 µM in [2]; 21.7 µM in assay [3]; 6.94 µM in assay [20]; 25.9 µM in assay [4]; 21.8 µM in assay [5]. The TGI in [6] came to 32.6 µM; in assay [7], 28.2 µM; in assay [8], 17.9 µM; in [9], 35.1 µM; in assay [11], 18.9 µM; in [12] it was 48.2 µM. In addition, the TGI was determined as 23.1 µM in [13]; 22.7 µM in assay [14]; 32.2 µM in [15]; 30.5 µM in assay [16]; 45.6 µM in assay [17]; 19 µM in assay [18]. The compound also yielded a TGI in assay [19] of 26.1 µM.
Consider `O=C1CC(O)c2c(Br)sc(Br)c21` (stereo unspecified), for which the TGI in assay [1] worked out at 43.4 µM; in assay [2], 63.1 µM; in assay [3] it was 4.24 µM; in [20], 18 µM; in assay [4] it was 14.9 µM; in assay [5], 43.6 µM. Besides, the TGI came to 31.9 µM in assay [6]; 8.3 µM in assay [7]; 18.5 µM in assay [8]; 4.61 µM in assay [9]; 19.9 µM in [11]; 43.8 µM in [13]. Further, the TGI in assay [14] is 32 µM; in assay [15], 30.3 µM; in assay [16], 29.8 µM; in assay [17] it was 13.3 µM; in assay [18], 16.4 µM; in [19] it was 17.4 µM.
